Test results from patent US10669290B2, “Beta-lactamase inhibitors” (priority 2012, dated 2020).

Key:
Assay type in all cases: cell-based
E. coli ESBL4 CTX-M-15 = assay: Broth microdilution MIC, E. coli ESBL4; conditions: Escherichia coli, ESBL4CTXM15; fixed ceftazidime 4 μg/mL, CAMHB, 16-20 hours 37° C.; read-out: MIC of exemplary compounds in presence of fixed β-lactams, Fixed CAZ, E. coli ESBL4 CTX-M-15
Source text: (§1) To determine the ability of test compounds to potentiate the inhibition of the growth of bacterial strains that produce beta-lactamase enzymes, classic cell based broth microdilution MIC assays were employed. Six bacteria strains producing beta-lactamase enzymes were used: E. coli expressing the Class A Extended Spectrum Beta-Lactamase (ESBL) CTX-M-15, E. cloacae expressing the Class C P99, K. pneumoniae expressing the Class A carbapenemase KPC-2, P. aeruginosa expressing the Class B carbapenemase VIM-2, K. pneumoniae expressing the class A carbapenemase KPC-2 and the class B carbapenemase VIM-4, and S. aureus producing the Class A penicillinase PC-1. The assay was conducted in Cation Adjusted Mueller Hinton Broth (CAMHB, BD #212322, BD Diagnostic Systems, Sparks, Md.). Bacteria strains were grown for 3-5 hours in CAMBH broth. Test compounds were added to a microtiter plate in 2-fold serial dilutions in CAMHB in a final concentration range of 32 μg/mL to 0.25 μg/ml. An overlay of CAMHB containing a Beta-lactam was added to the compounds at a final static concentration of 4 μg/ml. […] In addition to the titration of test compounds the MICs of a panel of control beta-lactams is also tested to ensure the strains are behaving consistently from test to test. Once the test compound and antibiotics are added the plates can be inoculated according to CLSI broth microdilution method. After inoculation the plates are incubated for 16-20 hours at 37° C. then the Minimal Inhibitory Concentration (MIC) of the test compound is determined visually.
(§2) Using the methodology described above in EXAMPLE III, exemplary compounds for Formula I or Formula Ia were evaluated for their ability to inhibit the growth of β-lactamase producing bacteria in the presence of a β-lactam antibiotic.

E. cl 144200 p99 AmpC = assay: Broth microdilution MIC, E. cloacae 144200; conditions: Enterobacter cloacae; fixed ceftazidime 4 μg/mL, CAMHB, 16-20 hours 37° C.; read-out: MIC of exemplary compounds in presence of fixed β-lactams, Fixed CAZ, E. cl 144200 p99 AmpC
Source text: as §1, §2

K.P. 156319 KPC-3 = assay: Broth microdilution MIC, K. pneumoniae 156319; conditions: Klebsiella pneumoniae; fixed meropenem 4 μg/mL, CAMHB, 16-20 hours 37° C.; read-out: MIC of exemplary compounds in presence of fixed β-lactams, Fixed Mero, K.P. 156319 KPC-3
P. aerug. Ps296 VIM-2 = assay: Broth microdilution MIC, P. aeruginosa Ps296; conditions: Pseudomonas aeruginosa; fixed meropenem 4 μg/mL, CAMHB, 16-20 hours 37° C.; read-out: MIC of exemplary compounds in presence of fixed β-lactams, Fixed Mero, P. aerug. Ps296 VIM-2
Source text: as §1, §2

K.P. A-1797 KPC-2 VIM-4 = assay: Broth microdilution MIC, K. pneumoniae A-1797; conditions: Klebsiella pneumoniae; fixed meropenem 4 μg/mL, CAMHB, 16-20 hours 37° C.; read-out: MIC of exemplary compounds in presence of fixed β-lactams, Fixed Mero, K.P. A-1797 KPC-2 VIM-4
Source text: as §1, §2

S. aureus MSSA-7 PC-1 = assay: Broth microdilution MIC, S. aureus MSSA-7; conditions: Staphylococcus aureus, fixed piperacillin 4 μg/mL, CAMHB, 16-20 hours 37° C., read-out: MIC of exemplary compounds in presence of fixed β-lactams, Fixed Pip, S. aureus MSSA-7 PC-1
Source text: as §1, §2

MIC (E. coli ESBL4 CTX-M-15)	MIC (E. cl 144200 p99 AmpC)	MIC (K.P. 156319 KPC-3)	MIC (P. aerug. Ps296 VIM-2)	MIC (K.P. A-1797 KPC-2 VIM-4)	MIC (S. aureus MSSA-7 PC-1)	SMILES
< 4 µg/mL	< 4 µg/mL	< 4 µg/mL	8 to 32 µg/mL	> 32 µg/mL	< 4 µg/mL	N[C@H]1CC[C@H](CCC(=O)N[C@H]2Cc3cccc(C(=O)O)c3OB2O)CC1 [Example 21, (R)-3-(3-(trans-4-aminocyclohexyl)propanamido)-2-hydroxy-3,4-dihydro-2H-benzo[e][1,2]oxaborinine-8-carboxylic acid]
< 4 µg/mL	< 4 µg/mL	< 4 µg/mL	8 to 32 µg/mL	< 4 µg/mL	< 4 µg/mL	N=C(N)N[C@H]1CC[C@H](CCC(=O)N[C@H]2Cc3cccc(C(=O)O)c3OB2O)CC1 [Example 22, (R)-3-(3-(trans-4-guanidinocyclohexyl)propanamido)-2-hydroxy-3,4-dihydro-2H-benzo[e][1,2]oxaborinine-8-carboxylic acid]
< 4 µg/mL	< 4 µg/mL	< 4 µg/mL	< 4 µg/mL	< 4 µg/mL	< 4 µg/mL	N=C(N)NCCN[C@H]1CC[C@H](CC(=O)N[C@H]2Cc3cccc(C(=O)O)c3OB2O)CC1 [Example 25, (R)-3-(2-(trans-4-(2-guanidinoethylamino)cyclohexyl)acetamido)-2-hydroxy-3,4-dihydro-2H-benzo[e][1,2]oxaborinine-8-carboxylic acid]
< 4 µg/mL	< 4 µg/mL	< 4 µg/mL	< 4 µg/mL	< 4 µg/mL	< 4 µg/mL	O=C(C[C@H]1CC[C@H](NCCO)CC1)N[C@H]1Cc2cccc(C(=O)O)c2OB1O [Example 26, (R)-2-hydroxy-3-(2-(trans-4-(2-hydroxyethylamino)cyclohexyl)acetamido)-3,4-dihydro-2H-benzo[e][1,2]oxaborinine-8-carboxylic acid]
< 4 µg/mL	< 4 µg/mL	< 4 µg/mL	8 to 32 µg/mL	> 32 µg/mL	< 4 µg/mL	O=C(O)CN[C@H]1CC[C@H](CC(=O)N[C@H]2Cc3cccc(C(=O)O)c3OB2O)CC1 [Example 28, (R)-3-(2-(trans-4-(carboxymethylamino)cyclohexyl)acetamido)-2-hydroxy-3,4-dihydro-2H-benzo[e][1,2]oxaborinine-8-carboxylic acid]
< 4 µg/mL	< 4 µg/mL	< 4 µg/mL	8 to 32 µg/mL	8 to 32 µg/mL	< 4 µg/mL	N=CN[C@H]1CC[C@H](CC(=O)N[C@H]2Cc3cccc(C(=O)O)c3OB2O)CC1 [Example 30, (R)-3-(2-(trans-4-formimidamidocyclohexyl)acetamido)-2-hydroxy-3,4-dihydro-2H-benzo[e][1,2]oxaborinine-8-carboxylic acid]
< 4 µg/mL	< 4 µg/mL	< 4 µg/mL	< 4 µg/mL	8 to 32 µg/mL	< 4 µg/mL	N=C(N)N1CCC(CN[C@H]2CC[C@H](CC(=O)N[C@H]3Cc4cccc(C(=O)O)c4OB3O)CC2)CC1 [Example 34, (R)-3-(2-(trans-4-((1-carbamimidoylpiperidin-4-yl)methylamino)cyclohexyl)acetamido)-2-hydroxy-3,4-dihydro-2H-benzo[e][1,2]oxaborinine-8-carboxylic acid]
< 4 µg/mL	< 4 µg/mL	< 4 µg/mL	8 to 32 µg/mL	8 to 32 µg/mL	< 4 µg/mL	O=C(C[C@H]1CC[C@H](NCc2nccs2)CC1)N[C@H]1Cc2cccc(C(=O)O)c2OB1O [Example 39]

The remaining lines, values behind:

SMILES	MIC (E. coli ESBL4 CTX-M-15)	MIC (E. cl 144200 p99 AmpC)	MIC (K.P. 156319 KPC-3)	MIC (P. aerug. Ps296 VIM-2)	MIC (K.P. A-1797 KPC-2 VIM-4)	MIC (S. aureus MSSA-7 PC-1)
CN(C)CCN(C)[C@H]1CC[C@H](CC(=O)N[C@H]2Cc3cccc(C(=O)O)c3OB2O)CC1 [Example 23, (R)-3-(2-(trans-4-((2-(dimethylamino)ethyl)(methyl)amino)cyclohexyl)acetamido)-2-hydroxy-3,4-dihydro-2H-benzo[e][1,2]oxaborinine-8-carboxylic acid]	< 4 µg/mL	< 4 µg/mL	< 4 µg/mL	> 32 µg/mL	> 32 µg/mL	< 4 µg/mL
O=C(C[C@H]1CC[C@H](NCc2cccnc2)CC1)N[C@H]1Cc2cccc(C(=O)O)c2OB1O [Example 27, (R)-2-hydroxy-3-(2-(trans-4-(pyridin-3-ylmethylamino)cyclohexyl)acetamido)-3,4-dihydro-2H-benzo[e][1,2]oxaborinine-8-carboxylic acid]	< 4 µg/mL	< 4 µg/mL	< 4 µg/mL	8 to 32 µg/mL	8 to 32 µg/mL	< 4 µg/mL
O=C(C[C@H]1CC[C@H](N2C=NCC2)CC1)N[C@H]1Cc2cccc(C(=O)O)c2OB1O [Example 29, (R)-3-(2-(trans-4-(4,5-dihydro-1H-imidazol-1-yl)cyclohexyl)acetamido)-2-hydroxy-3,4-dihydro-2H-benzo[e][1,2]oxaborinine-8-carboxylic acid]	< 4 µg/mL	< 4 µg/mL	< 4 µg/mL	8 to 32 µg/mL	> 32 µg/mL	< 4 µg/mL
O=C(CC1CCCCC1)N[C@H]1Cc2cccc(C(=O)O)c2OB1O [Example 31, (R)-3-(2-cyclohexylacetamido)-2-hydroxy-3,4-dihydro-2H-benzo[e][1,2]oxaborinine-8-carboxylic acid]	< 4 µg/mL	< 4 µg/mL	8 to 32 µg/mL	8 to 32 µg/mL	> 32 µg/mL	< 4 µg/mL
O=C(C[C@H]1CC[C@H](NCc2ccccn2)CC1)N[C@H]1Cc2cccc(C(=O)O)c2OB1O [Example 32, (R)-2-hydroxy-3-(2-(trans-4-(pyridin-2-ylmethylamino)cyclohexyl)acetamido)-3,4-dihydro-2H-benzo[e][1,2]oxaborinine-8-carboxylic acid]	< 4 µg/mL	< 4 µg/mL	< 4 µg/mL	8 to 32 µg/mL	> 32 µg/mL	< 4 µg/mL
O=C(C[C@H]1CC[C@H](NCC2CCNCC2)CC1)N[C@H]1Cc2cccc(C(=O)O)c2OB1O [Example 33, (R)-2-hydroxy-3-(2-(trans-4-(piperidin-4-ylmethylamino)cyclohexyl)acetamido)-3,4-dihydro-2H-benzo[e][1,2]oxaborinine-8-carboxylic acid]	< 4 µg/mL	< 4 µg/mL	< 4 µg/mL	8 to 32 µg/mL	8 to 32 µg/mL	< 4 µg/mL
N[C@H]1CC(CC(=O)N[C@H]2Cc3cccc(C(=O)O)c3OB2O)C[C@@H]1N [Example 37]	< 4 µg/mL	< 4 µg/mL	< 4 µg/mL	< 4 µg/mL	8 to 32 µg/mL	< 4 µg/mL
CC(NC(=O)C1C[C@H](N)[C@@H](N)C1)C(=O)N[C@H]1Cc2cccc(C(=O)O)c2OB1O (stereo partly drawn) [Example 38]	< 4 µg/mL	< 4 µg/mL	< 4 µg/mL	< 4 µg/mL	< 4 µg/mL	< 4 µg/mL
O=C(CC1CCC(N2CCOCC2)CC1)N[C@H]1Cc2cccc(C(=O)O)c2OB1O (stereo partly drawn) [Example 40, (R)-2-hydroxy-3-(2-(4-morpholinocyclohexyl)acetamido)-3,4-dihydro-2H-benzo[e][1,2]oxaborinine-8-carboxylic acid]	< 4 µg/mL	< 4 µg/mL	< 4 µg/mL	> 32 µg/mL	> 32 µg/mL	< 4 µg/mL
